MIC data for 18 molecules are collected here from ChEMBL document CHEMBL1142848, “Synthesis and antibacterial activity of N-(5-benzylthio-1,3,4-thiadiazol-2-yl) and N-(5-benzylsulfonyl-1,3,4-thiadiazol-2-yl)piperazinyl quinolone derivatives” (2005).

What all share (format): functional
Assay [1] relates to Bacillus subtilis. Kind of assay: Minimum inhibitory concentration against Bacillus subtilis.
In assay [2] the test system is Staphylococcus aureus. The assay is described as follows: Minimum inhibitory concentration against Staphylococcus aureus.
The test system of assay [3] is Escherichia coli. The assay is described as follows: Minimum inhibitory concentration against Escherichia coli.
Assay [4] relates to Staphylococcus epidermidis. The assay is described as follows: Minimum inhibitory concentration against Staphylococcus epidermidis.
The test system of assay [5] is Pseudomonas aeruginosa. The assay is described as follows: Minimum inhibitory concentration against Pseudomonas aeruginosa.
The test system of assay [6] is Klebsiella pneumoniae. The assay is described as follows: Minimum inhibitory concentration against Klebsiella pneumoniae.

Each structure is given as a SMILES string. ≈ marks a conversion by molar mass, not a printed value.

Regarding `O=C(O)c1cn(C2CC2)c2cc(N3CCN(c4nnc(S(=O)(=O)Cc5ccc([N+](=O)[O-])cc5)s4)CC3)c(F)cc2c1=O`, the MIC (usually the lowest concentration that inhibits growth of the organism) in assay [1] was 1 µg/mL (≈ 1.63 µM); in assay [2] it was 8 µg/mL (≈ 13 µM); in assay [3], more than 64 µg/mL; in assay [4], 2 µg/mL (≈ 3.25 µM); in assay [5], more than 64 µg/mL; in assay [6], 64 µg/mL (≈ 104 µM).
Take `CCn1cc(C(=O)O)c(=O)c2cc(F)c(N3CCN(c4nnc(S(=O)(=O)Cc5ccccc5)s4)CC3)cc21`: the MIC in assay [1] was 8 µg/mL (≈ 14.3 µM); in assay [2] it was 64 µg/mL (≈ 115 µM); in assay [3] it was more than 64 µg/mL; in assay [4], 16 µg/mL (≈ 28.7 µM); in assay [5], more than 64 µg/mL; in assay [6], more than 64 µg/mL.
For `O=C(O)c1cn(C2CC2)c2cc(N3CCN(c4nnc(SCc5ccc([N+](=O)[O-])cc5)s4)CC3)c(F)cc2c1=O`, the MIC in assay [1] stood at 0.5 µg/mL (≈ 0.858 µM); in assay [2], 0.5 µg/mL (≈ 0.858 µM); in assay [3], 1 µg/mL (≈ 1.72 µM); in assay [4], 0.03 µg/mL (≈ 0.0515 µM); in assay [5], 32 µg/mL (≈ 54.9 µM); in assay [6], 2 µg/mL (≈ 3.43 µM).
On to `O=C(O)c1cn(C2CC2)c2cc(N3CCN(c4nnc(S(=O)(=O)Cc5cccc([N+](=O)[O-])c5)s4)CC3)c(F)cc2c1=O`, for which the MIC in assay [1] was 8 µg/mL (≈ 13 µM); in assay [2] it was 1 µg/mL (≈ 1.63 µM); in assay [3] it was 8 µg/mL (≈ 13 µM); in assay [4], 0.05 µg/mL (≈ 0.0813 µM); in assay [5] it was more than 64 µg/mL; in assay [6] it was 16 µg/mL (≈ 26 µM).
As for `O=C(O)c1cn(C2CC2)c2cc(N3CCN(c4nnc(S(=O)(=O)Cc5ccccc5[N+](=O)[O-])s4)CC3)c(F)cc2c1=O`, the MIC was 1 µg/mL (≈ 1.63 µM) in assay [1]; 4 µg/mL (≈ 6.51 µM) in assay [2]; 1 µg/mL (≈ 1.63 µM) in assay [3]; 0.03 µg/mL (≈ 0.0488 µM) in assay [4]; more than 32 µg/mL in assay [5]; 4 µg/mL (≈ 6.51 µM) in assay [6].
For `O=C(O)c1cn(C2CC2)c2cc(N3CCN(c4nnc(SCc5cccc([N+](=O)[O-])c5)s4)CC3)c(F)cc2c1=O`, the MIC in assay [1] is 4 µg/mL (≈ 6.87 µM); in assay [2], 0.5 µg/mL (≈ 0.858 µM); in assay [3], 2 µg/mL (≈ 3.43 µM); in assay [4] it was 0.06 µg/mL (≈ 0.103 µM); in assay [5] it was 64 µg/mL (≈ 110 µM); in assay [6], 2 µg/mL (≈ 3.43 µM).
For the molecule `CCn1cc(C(=O)O)c(=O)c2cc(F)c(N3CCN(c4nnc(S(=O)(=O)Cc5ccccc5[N+](=O)[O-])s4)CC3)cc21`, the MIC is 16 µg/mL (≈ 26.6 µM) in assay [1]; more than 64 µg/mL in assay [2]; 32 µg/mL (≈ 53.1 µM) in assay [3]; more than 64 µg/mL in assay [4]; more than 64 µg/mL in assay [5]; 64 µg/mL (≈ 106 µM) in assay [6].
On to `CCn1cc(C(=O)O)c(=O)c2cc(F)c(N3CCN(c4nnc(SCc5ccccc5)s4)CC3)cc21`, for which the MIC in assay [1] was 8 µg/mL (≈ 15.2 µM); in assay [2] it was 16 µg/mL (≈ 30.4 µM); in assay [3] it was 16 µg/mL (≈ 30.4 µM); in assay [4], 2 µg/mL (≈ 3.8 µM); in assay [5], more than 64 µg/mL; in assay [6] it was 16 µg/mL (≈ 30.4 µM).
With `CCn1cc(C(=O)O)c(=O)c2cc(F)c(N3CCN(c4nnc(SCc5ccc([N+](=O)[O-])cc5)s4)CC3)cc21`, the MIC is 2 µg/mL (≈ 3.5 µM) in assay [1]; 4 µg/mL (≈ 7.01 µM) in assay [2]; 32 µg/mL (≈ 56.1 µM) in assay [3]; 0.5 µg/mL (≈ 0.876 µM) in assay [4]; more than 64 µg/mL in assay [5]; 64 µg/mL (≈ 112 µM) in assay [6].
On to `O=C(O)c1cn(C2CC2)c2cc(N3CCN(c4nnc(SCc5ccccc5)s4)CC3)c(F)cc2c1=O`, for which the minimum inhibitory concentration (MIC) was 4 µg/mL (≈ 7.44 µM) in assay [1]; 2 µg/mL (≈ 3.72 µM) in assay [2]; 16 µg/mL (≈ 29.8 µM) in assay [3]; 1 µg/mL (≈ 1.86 µM) in assay [4]; more than 64 µg/mL in assay [5]; 32 µg/mL (≈ 59.5 µM) in assay [6].
With `O=C(O)c1cn(C2CC2)c2cc(N3CCN(c4nnc(SCc5ccccc5[N+](=O)[O-])s4)CC3)c(F)cc2c1=O`, the MIC in assay [1] was 4 µg/mL (≈ 6.87 µM); in assay [2], 2 µg/mL (≈ 3.43 µM); in assay [3], 2 µg/mL (≈ 3.43 µM); in assay [4] it was 0.06 µg/mL (≈ 0.103 µM); in assay [5], 64 µg/mL (≈ 110 µM); in assay [6] it was 16 µg/mL (≈ 27.5 µM).
Regarding `CCn1cc(C(=O)O)c(=O)c2cc(F)c(N3CCN(c4nnc(S(=O)(=O)Cc5ccc([N+](=O)[O-])cc5)s4)CC3)cc21`, the MIC is 32 µg/mL (≈ 53.1 µM) in assay [1]; 64 µg/mL (≈ 106 µM) in assay [2]; more than 64 µg/mL in assay [3]; 8 µg/mL (≈ 13.3 µM) in assay [4]; more than 64 µg/mL in assay [5]; more than 64 µg/mL in assay [6].
In the case of `O=C(O)c1cn(C2CC2)c2cc(N3CCN(c4nnc(S(=O)(=O)Cc5ccccc5)s4)CC3)c(F)cc2c1=O`, the MIC was 4 µg/mL (≈ 7.02 µM) in assay [1]; 16 µg/mL (≈ 28.1 µM) in assay [2]; more than 64 µg/mL in assay [3]; 4 µg/mL (≈ 7.02 µM) in assay [4]; more than 64 µg/mL in assay [5]; more than 64 µg/mL in assay [6].
On to `CCn1cc(C(=O)O)c(=O)c2cc(F)c(N3CCN(c4nnc(S(=O)(=O)Cc5cccc([N+](=O)[O-])c5)s4)CC3)cc21`, for which the MIC in assay [1] is 64 µg/mL (≈ 106 µM); in assay [2], more than 64 µg/mL; in assay [3], more than 64 µg/mL; in assay [4], 64 µg/mL (≈ 106 µM); in assay [5] it was more than 64 µg/mL; in assay [6], more than 64 µg/mL.
As to `CCn1cc(C(=O)O)c(=O)c2cc(F)c(N3CCN(c4nnc(SCc5ccccc5[N+](=O)[O-])s4)CC3)cc21`, the minimal inhibitory concentration (MIC) in assay [1] was 8 µg/mL (≈ 14 µM); in assay [2], 4 µg/mL (≈ 7.01 µM); in assay [3] it was 16 µg/mL (≈ 28 µM); in assay [4], 0.5 µg/mL (≈ 0.876 µM); in assay [5], more than 64 µg/mL; in assay [6], 32 µg/mL (≈ 56.1 µM).
As to `CCn1cc(C(=O)O)c(=O)c2cc(F)c(N3CCN(c4nnc(SCc5cccc([N+](=O)[O-])c5)s4)CC3)cc21`, the MIC in assay [1] was 8 µg/mL (≈ 14 µM); in assay [2], 2 µg/mL (≈ 3.5 µM); in assay [3] it was 16 µg/mL (≈ 28 µM); in assay [4] it was 0.25 µg/mL (≈ 0.438 µM); in assay [5] it was more than 64 µg/mL; in assay [6], 16 µg/mL (≈ 28 µM).
For `O=C(O)c1cn(C2CC2)c2cc(N3CCNCC3)c(F)cc2c1=O` [CIPROFLOXACIN], the minimal inhibitory concentration (MIC) stood at 0.015 µg/mL (≈ 0.0453 µM) in assay [1], 0.5 µg/mL (≈ 1.51 µM) in assay [2], 0.25 µg/mL (≈ 0.754 µM) in assay [4] and 0.06 µg/mL (≈ 0.181 µM) in assay [6].
For the molecule `CCn1cc(C(=O)O)c(=O)c2cc(F)c(N3CCNCC3)cc21` [NORFLOXACIN], the MIC in assay [1] came to 0.06 µg/mL (≈ 0.188 µM); in assay [2], 1 µg/mL (≈ 3.13 µM); in assay [3] it was 0.25 µg/mL (≈ 0.783 µM); in assay [4], 0.5 µg/mL (≈ 1.57 µM); in assay [5], 2 µg/mL (≈ 6.26 µM); in assay [6], 0.25 µg/mL (≈ 0.783 µM).
